{"source": "patent US3959281A", "about": "“Piperazino substituted coumarin derivatives” (Cassella Farbwerke Mainkur Aktiengesellschaft, priority 1968, dated 1976)", "key": {"[1]": {"assay": "LD 50 Mouse", "details": "in vivo, iv, dihydrochloride"}, "[2]": {"system": "coronary vessels", "assay": "vasodilator action on the coronary vessels: change in the oxygen tension in the coronary veinous blood (narcotized dogs, i.v.)", "assay_type": "in vivo", "details": "dog, 0.5 mg./kg. i.v., dihydrochloride", "procedure": "(§1) With respect to the change in the oxygen tension in the coronary veinous blood, the pharmacological investigation of the vasodilator action on the coronary vessels was carried out in dogs according to the methods described by W.K.A. Schaper and his co-workers (see W.K.A. SCHAPER, R. XHONNEUX, and J.M. BOGAARD \"Ueber die kontinuierliche Messung des Sauerstoffdruckes im venoesen Coronarblut\" (Naunyn-Schmiedeberg's Arch. exp. Path. u. Pharmak. 245, 383-389 (1963)). The test preparations were applied intravenously to the narcotized and spontaneously breathing animals. On these test conditions the dilatation of the coronary arteries caused by the test substances along with the increase in the coronary blood flow led to an increase in the oxygen tension in the coronary veinous blood. This oxygen tension was measured according to polarographic methods by means of a platin electrode of the Gleichmann-Lubbers type (see U. GLEICHMANN and D.W. LUEBBERS \"Die Messung des Sauerstoffdruckes in Gasen and Fluessigkeiten mit der Platin-Elektrode unter besonderer Berucksichtigung der Messung im Blut,\" Pflugers Arch. 271, 431-455 (1960)). The heart rate was continuously measured by electronic methods from systolic peaks of the arterial blood pressure. The arterial blood pressure was measured in the known manner in the femoral artery with the aid of an electromanometer of the Statham-strain-gauge type.\n(§2) The following table gives the results of the pharmacological investigations which were carried through. The preparations were tested in the form of their respective dihydrochlorides: […]"}, "[3]": {"assay": "heart rate, continuously measured from systolic peaks of the arterial blood pressure (narcotized dogs, i.v.)", "assay_type": "in vivo", "details": "dog, 0.5 mg./kg. i.v., dihydrochloride", "procedure": "as §1, with “The arterial blood pressure was measured in the known manner in the femoral artery with the aid of an electromanometer of the Statham-strain-gauge type.” left out"}, "[4]": {"assay": "arterial blood pressure in the femoral artery (narcotized dogs, i.v.)", "assay_type": "in vivo", "details": "dog, 0.5 mg./kg. i.v., dihydrochloride", "procedure": "as §1, §2"}}}
{"smiles": "COc1cc(C(=O)OC(Cc2c(C)c3ccc(OC)c(OC)c3oc2=O)CN2CCN(CC(=O)Nc3c(C)cccc3C)CC2)cc(OC)c1OC", "note": "(stereo not drawn) [3-[γ-{N-(2,6-dimethyl-anilidocarbonylmethyl)-piperazino}-β-(3,4,5-trimethoxybenzoxy)-propyl]-4-methyl-7,8-dimethoxy-courmarin]", "values": [{"measurement": "LD50", "setting": "[1]", "result": "> 400", "unit": "mg/kg"}, {"measurement": "Maximal Increase in Oxygen Tension in the Coronary Veinous Blood", "setting": "[2]", "result": "+36%"}, {"measurement": "Maximal Increase in Oxygen Tension in the Coronary Veinous Blood", "setting": "[2]; duration", "result": "> 20", "unit": "min"}]}
{"smiles": "COc1ccc(CN2CCN(CC(Cc3c(C)c4ccc(OC)c(OC)c4oc3=O)OC(=O)c3cc(OC)c(OC)c(OC)c3)CC2)cc1OC", "note": "(stereo not drawn) [3-[γ-(N-3,4-dimethoxy-benzyl-piperazino)-β-(3,4,5-trimethoxybenzoxy)-propyl]-4-methyl-7,8-dimethoxy-coumarin]", "values": [{"measurement": "Maximal Change in the Heart Rate", "setting": "[3]", "result": -20, "unit": "%"}, {"measurement": "Maximal Change in the Heart Rate", "setting": "[3]; duration", "result": "> 25", "unit": "min"}, {"measurement": "Maximal Increase in Oxygen Tension in the Coronary Veinous Blood", "setting": "[2]", "result": "+60%"}, {"measurement": "Maximal Increase in Oxygen Tension in the Coronary Veinous Blood", "setting": "[2]; duration", "result": "> 25", "unit": "min"}, {"measurement": "Maximal Change in the Blood Pressure (diastolic)", "setting": "[4]; diastolic", "result": -66, "unit": "%"}, {"measurement": "Maximal Change in the Blood Pressure", "setting": "[4]; duration", "result": "> 25", "unit": "min"}, {"measurement": "Maximal Change in the Blood Pressure (systolic)", "setting": "[4]; systolic", "result": -57, "unit": "%"}]}
